The nature of assay [1]: DPPH test (antioxidant power). The settings on record: decrease of DPPH radical peak at 517 nm, spectrophotometry. As to the method:
DPPH Test The DPPH test allows determining the antioxidant power by reacting the sample to be analyzed with a solution of DPPH [2,2-diphenyl-1-picrylhydrazyl, PM 394.33, […]] and analyzing the decrease in the peak at 517 of the DPPH^• radical at UV. Antioxidant compounds which are capable of transferring a hydrogen atom to the radical cause a loss of absorbance of the solution. The decrease of the DPPH^• radical peak at 517 nm is then analyzed by spectrophotometry after a predetermined incubation time. This decrease (discoloration) is proportional to the antioxidant load present in the sample. The results can also be expressed as IC50, i.e., the concentration of antioxidant compound which causes an initial 50% decrease in DPPH^•.

The nature of assay [2]: ORAC test (Oxygen Radical Absorbance Capacity). The settings on record: fluorescence decay under peroxyl radical flow; Trolox as reference standard. From the text:
ORAC Test The ORAC method (Oxygen Radical Absorbance Capacity) is one of the most common methods for determining radical trapping capacity against peroxyl radicals. The principle of the test is based on the measurement of the decrease in the fluorescence intensity of a fluorescent target molecule (for example fluorescein), under a constant flow of peroxyl radicals, generated by the thermal decomposition of an azo compound. The results are expressed as equivalent Trolox® micromoles, using this compound as the reference standard.

Regarding `O=C1O[C@H]([C@@H](O)CO)C(O)=C1O` [Ascorbic acid], the “DPPH IC50” value in assay [1] amounted to 7.196 ± 0.852 µg/mL. Also, the ORAC in assay [2] is 2900 ± 310 μmol Trolox ® equivalent/g of sample.

The values above are taken from patent US20240058413A1, “GRAPE SEED EXTRACT PREPARATION PROCESS AND EXTRACTS THUS OBTAINED” (Distillerie Bonollo Umberto - S.P.A. Con Sigla "U.B. S.P.A.", priority 2020, published 2024).
